# Measured values: US5130119A, “Method of using fluorosubstituted benzene derivatives in F-NMR imaging” (Schering Aktiengesellschaft, priority 1988, dated 1992)
# Values joined by “and” are separate entries in the source; they are usually repeats but may differ in a detail not shown here. Identical values can stand only once.
# Assays:
# [1] = tested on: kidney, bladder and ureter; test: 19F imaging; format: in vivo, rat
# Source text: FIG. 4 relates to Example 50 and is the projection ^19 F image of the kidney, bladder, and ureters of a rat administered 0.75 mmol/kg of 5-[N-4-fluoro-2-trifluoromethylphenyl)sulfamoyl] isophthalic acid and 0.2 mmol/kg GdDTPA.
# Production of the solution of the fluorinated substance as well as preparation of the animal take place as in taking the ^19 F NMR spectra.
# The test animal is placed in the measuring coil and the fluorinated compound is applied in a dose of 0.75 mmol/kg of body weight by the tail vein in 1 minute. Then an intravenous application takes place, also by needle in the tail vein, of GdDTPA in a dose of 0.2 mmol/kg. Making of the image takes place with a projection spin echo sequence and the parameters: TR=28 msec (repetition rate), TE=4 msec (echo time), NEX=256 (number of averagings); the total measuring time is 15 minutes.
# [2] = intravenous acute tolerability (LD50) on the mouse; settings: in vivo
# Description: Thus, for example, an intravenous acute tolerability (LD50) of 4 mmol/kg of body weight was determined on the mouse for 5-[N-(4-fluoro-2-trifluoromethylphenyl)sulfamoyl)-isophthalic acid (Example 13).
# [3] = tested on: rat (whole animal; bladder area); test: in vivo 19F NMR spectroscopic pH determination; design: species or system female rats of the Wistar-Han-Schering strain (SPF); settings: 0.5 mmol/kg i.v.
# Description: Performance of in vivo ^19 F NMR spectroscopic pH determinations with 5-[N-(4-fluoro-2-trifluoromethylphenyl)sulfamoyl]-isophthalic acid (Example 13)
# An aqueous solution of the fluorocompound is produced with a concentration of 0.4 mol/1. The pH of the aqueous solution is adjusted with NaOH to 7.2.
# The NMR spectra are measured with an animal experimental nuclear spin tomograph (General Electric), which operates with a field strength of 2 tesla (corresponds to an RF resonance frequency of 80.5 MHz). The signals can be picked up by the whole-body coil (animal size) or surface coils.
# The experiments are performed with female rats of the Wistar-Han-Schering strain (SPF) with a body weight of 200 g. The animal is anesthetized by an intramuscular injection of Rompun/Ketavet (1:1, 1 ml/kg of body weight). Then a butterfly needle is placed in the animal in one of the tail veins. The animal is placed in a whole-body coil and the latter is tuned to the fluororesonance frequency. The spectrum of the entire animal is developed with this coil, i.e., no volume-selective spectroscopy is performed.
# The fluorinated compound is applied intravenously within 30 seconds in a dose of 0.5 mmol/kg and an F spectrum is registered within 4 minutes.
# After measurement of the total animal, the animal was removed from the coil and positioned on a surface coil so that the bladder area was picked up by the coil. […] The intense signals originate from the fluorocompound in the bladder. The chemical shift in the aromatic range is identical with the deep-field signal of the aromatic range in FIG. 2.
compound,measurement,setting,value
"O=C(O)c1cc(C(=O)O)cc(S(=O)(=O)Nc2ccc(F)cc2C(F)(F)F)c1 [Example 13, 5-[N-(4-fluoro-2-trifluoromethylphenyl)sulfamoyl]-isophthalic acid]",excretion (imaging),[1]; 0.75 mmol/kg i.v. plus GdDTPA 0.2 mmol/kg,renally excreted
same,19F image,"[1]; 0.75 mmol/kg i.v. plus GdDTPA 0.2 mmol/kg i.v., projection spin echo, 15 minutes","shows the kidney, bladder and ureter"
same,"F concentration in kidney, bladder and ureter","[1]; 0.75 mmol/kg i.v., reabsorption of water in these areas",high F concentration
same,LD50,[2],4000 µmol/kg
same,pH calculated from the chemical shifts (2 environments),"[3]; 5 minutes after application, whole rat, 2 tesla, CF3 reference signal",6.5 and 7.7
same,19F signal from the alkaline range,[3]; 50 minutes after application,almost disappeared
same,19F signal in the acid range,[3]; 50 minutes after application,split into several signals
same,location of lowest pH in the animal,"[3]; bladder area, surface coil, 20 minutes measuring time",the lowest (most acid) pH is in the bladder
same,excretion,"[3]; bladder area, surface coil, 70 minutes after application, 20 minutes measuring time",renally excreted
same,distribution at the beginning of the experiment,[3]; whole rat,found only in the blood
same,distribution 50 minutes after application,"[3]; whole rat, 50 minutes",distributed extravascularly
